Experimental data from patent publication US20080176905A1, “Polymorphic forms of rosiglitazone hydrobromide and processes for preparation thereof” (priority 2007, published 2008).
Counter-ions that a name gives are not always drawn.

Legend:
[1] = Water content by Karl Fisher (KF) analysis; format: physicochemical; conditions: for Water content, as measured by KF: general statement in description, hydrobromide
Text: As used herein, the term “water content” refers to the content of water based upon the Loss on Drying method (the “LOD” method) as described in UPS 29-NF 24, official Aug. 1, 2006, Physical Test and Determinations, <731> LOSS ON DRYING or in Pharmacopeial Forum, Vol. 24, No. 1, p. 5438 (January-February 1998), the Karl Fisher assay for determining water content or thermogravimetric analysis (TGA). All percentages herein are by weight unless otherwise indicated. As used herein, the term “monohydrate” when used in reference to Rosiglitazone hydrobromide describes Rosiglitazone hydrobromide having water content of between about 3.9-4.1% w/w. As used herein, the term “hemi-hydrate” when used in reference to Rosiglitazone hydrobromide describes Rosiglitazone hydrobromide having a water content of about 1.8-2.1% w/w. As used herein, the term “quarter-hydrate” when used in reference to Rosiglitazone hydrobromide describes Rosiglitazone hydrobromide having a water content of about 0.7-1.0% w/w.
Water content was determined by Karl Fisher analysis using Mettler Toledo DL 38 Karl Fisher Titrator.

[2] = Weight loss on drying measured by TGA; format: physicochemical; conditions: for Weight loss, as measured by TGA: general statement in description, hydrobromide
Description: TGA analysis was preformed using Mettler 3M with Mettler TG 50 thermobalance. The weight of the samples was about 10 mg; the samples were scanned at a rate of 10° C./min from 25° C. to 200 or 250° C. The oven was constantly purged with nitrogen gas at a flow rate of 40 ml/min. Standard alumina crucibles covered by lids with 1 hole were used.

[3] = Crystalline stability of Form I under pressure, grinding and heating (XRD of resulting material)
[4] = relative humidity 100%
[5] = Polymorphic stability of Form I in compacted tablet with excipients; format: physicochemical; conditions: compacted with lactose monohydrate, sucrose and avicel
Text: Solid pharmaceutical compositions of Form I and the following excipients were compacted into a dosage form like a tablet: lactose monohydrate, sucrose and avicel. The polymorphic stability of Rosiglitazone form I in such tablet was examined and determined to be stable.

[6] = listed as Rosiglitazone hydrobromide Form II
[7] = 0 % RH, room temperature, 7 days
[8] = 100 % RH, room temperature, 7 days
[9] = listed as Rosiglitazone hydrobromide Form I

Row | SMILES | Water content, as measured by KF [1, 6] | Weight loss, as measured by TGA [2, 6] | KF (water content) [1, 7] [%] | KF (water content) [1, 8] [%] | KF (water content) ([1]; As is) [%] | Water content, as measured by KF [1, 9] | Water content ([1]; relative humidity of about 0%, corresponds to a quarter-hydrate) | Water content ([1]; relative humidity of about 50%, corresponds to a hemihydrate) | Hydrate obtained on maintaining at relative humidity ([1]; relative humidity of about 100%) | Stability under extreme heating conditions ([3]; 80° C. for 30 minutes) | Stability under high pressure and grinding conditions ([3]; high pressure and grinding) | Stability under extreme relative humidity conditions [4] | TGA (weight loss on drying) [2, 7] | TGA (weight loss on drying) [2, 8] | TGA (weight loss on drying) ([2]; As is) | Weight loss, as measured by TGA [2, 9] | Polymorphic stability in tablet [5]
1 | CN(CCOc1ccc(CC2SC(=O)NC2=O)cc1)c1ccccn1 (centres unmarked) [Form II, Rosiglitazone hydrobromide] | about 4.1 % by weight | about 3.9 % by weight |  |  |  |  |  |  |  |  |  |  |  |  |  |  | 
2 | CN(CCOc1ccc(CC2SC(=O)NC2=O)cc1)c1ccccn1 (centres unmarked) [Form I, Rosiglitazone hydrobromide] |  |  | 1 | 4.1 | 4.1 | 1.0-4.1 % by weight | about 1% | about 2% | a monohydrate is obtained | stable | stable | stable | 0.7 | 3.9 | 4.1 | 0.7-4.1 % by weight | stable
